Measured values taken from patent US20250320224A1 (DOMAIN THERAPEUTICS, priority 2022, published 2025).
Structures can show the parent of a compound that is named as a salt.

What follows are compounds tested against T1, human PAR-2 (hPAR-2) receptor (Homo sapiens, UniProt P55085) (assay: In vitro human PAR-2 functional antagonist activity using calcium assays). Settings: hPAR-2 endogenously expressed in HEK-293 cells; stimulated by 2-Furoyl-LIGRLO-NH2 peptide; Fluo4AM intracellular calcium, FLIPR Tetra.
T1 construct: expressed in HEK-293 cells in an endogenous manner; endogenous in cells; host or cells: HEK-293
T1 sequence (P55085 26-397): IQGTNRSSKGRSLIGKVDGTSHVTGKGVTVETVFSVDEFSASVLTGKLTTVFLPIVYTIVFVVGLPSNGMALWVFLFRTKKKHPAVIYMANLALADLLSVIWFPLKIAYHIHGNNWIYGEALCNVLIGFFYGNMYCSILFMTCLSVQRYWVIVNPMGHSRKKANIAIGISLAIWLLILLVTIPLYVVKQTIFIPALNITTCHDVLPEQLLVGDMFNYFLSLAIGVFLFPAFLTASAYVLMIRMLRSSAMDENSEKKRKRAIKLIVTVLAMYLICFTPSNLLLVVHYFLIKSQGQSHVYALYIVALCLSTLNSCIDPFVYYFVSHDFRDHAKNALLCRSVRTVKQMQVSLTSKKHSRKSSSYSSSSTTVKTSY
Assay type: cell-based
Procedure, shortened: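 Antagonism was measured as reduced calcium response to 2-Furoyl-LIGRLO-NH2 (dosed at its 80%-of-maximum concentration), recorded for 5 min. This followed a 10 min compound pre-incubation on Fluo4AM-loaded HEK-293 cells expressing native hPAR-2. Signals were normalised to buffer and agonist-alone controls.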

Q: How did the IC50 turn out when `Cc1cc(N2CCN(C(=O)c3cnc4c(n3)C(C)(C)CN4c3ccc(F)c(Cl)c3)C(C)(C)C2)nc(C)c1C(=O)O` [Example 191, 6-(4-(5-(3-chloro-4-fluorophenyl)-7,7-dimethyl-6,7-dihydro-5H-pyrrolo[2,3-b]pyrazine-2-carbonyl)-3,3-dimethylpiperazin-1-yl)-2,4-dimethylnicotinic acid] was run?
A: < 500 nM

Q: For `CC1(C)CN(c2ccc(Cl)c(F)c2)c2ccc(C(=O)N3CCOCC3(C)C)nc21` [Example 20, (1-(4-chloro-3-fluorophenyl)-3,3-dimethyl-2,3-dihydro-1H-pyrrolo[3,2-b]pyridin-5-yl)(3,3-dimethylmorpholino)methanone], which IC50 is on record?
A: < 500 nM

Q: How did the IC50 turn out when `C[C@H](CC(=O)O)N(C)C(=O)c1ccc2c(n1)C(C)(C)CN2c1ccc(Cl)c(F)c1` [Example 47, (R)-3-(1-(4-chloro-3-fluorophenyl)-N,3,3-trimethyl-2,3-dihydro-1H-pyrrolo[3,2-b]pyridine-5-carboxamido)butanoic acid] was run?
A: 500 to 10000 nM

Q: For `CC1(C)C(=O)NCCN1C(=O)c1ccc2c(n1)C1(CCOC1)CN2c1ccc(Cl)c(F)c1` (stereo not drawn) [Example 58, 4-(1′-(4-chloro-3-fluorophenyl)-1′,2′,4,5-tetrahydro-2H-spiro[furan-3,3′-pyrrolo[3,2-b]pyridine]-5′-carbonyl)-3,3-dimethylpiperazin-2-one], which IC50 is on record?
A: < 500 nM

Q: With `CC1(C)CC2(CN(c3ccc(F)c(F)c3)c3ncc(C(=O)N4CCN(c5ccc(CC(=O)O)cn5)CC4(C)C)nc32)C1` [Example 245, 2-(6-(4-(5′-(3,4-difluorophenyl)-3,3-dimethyl-5′,6′-dihydrospiro[cyclobutane-1,7′-pyrrolo[2,3-b]pyrazine]-2′-carbonyl)-3,3-dimethylpiperazin-1-yl)pyridin-3-yl)acetic acid] as the compound, how does the IC50 read?
A: < 500 nM

Q: `Cc1cc(N2CCN(C(=O)c3ccc4c(n3)C(C)(C)CN4c3ccc4c(c3)COC4)C(C)(C)C2)nc(C)c1C(=O)O` [Example 209, 6-(4-(1-(1,3-dihydroisobenzofuran-5-yl)-3,3-dimethyl-2,3-dihydro-1H-pyrrolo[3,2-b]pyridine-5-carbonyl)-3,3-dimethylpiperazin-1-yl)-2,4-dimethylnicotinic acid] was tested. Which IC50 did it give?
A: < 500 nM

Q: Which IC50 does the source give for `CN1CCN(C(=O)c2csc(N3CCN(C(=O)c4ccc5c(n4)C(C)(C)CN5c4ccc(Cl)c(F)c4)C(C)(C)C3)n2)CC1` [Example 101, (1-(4-chloro-3-fluorophenyl)-3,3-dimethyl-2,3-dihydro-1H-pyrrolo[3,2-b]pyridin-5-yl)(2,2-dimethyl-4-(4-(4-methylpiperazine-1-carbonyl)thiazol-2-yl)piperazin-1-yl)methanone hydrochloride] here?
A: < 500 nM

Q: Which IC50 does the source give for `Cc1cc(N2CCN(C(=O)c3ccc4c(n3)C(C)(C)CN4c3ccc(F)c(F)c3)C(C)(C)C2)nc(C)c1C(=O)O` [Example 14, 6-(4-(1-(3,4-difluorophenyl)-3,3-dimethyl-2,3-dihydro-1H-pyrrolo[3,2-b]pyridine-5-carbonyl)-3,3-dimethylpiperazin-1-yl)-2,4-dimethylnicotinic acid] here?
A: < 500 nM

Q: `CC1(C)CN(c2ccc(Cl)c(F)c2)c2ccc(C(=O)N3CCNCC3(C)C)nc21` [Example 22, (1-(4-chloro-3-fluorophenyl)-3,3-dimethyl-2,3-dihydro-1H-pyrrolo[3,2-b]pyridin-5-yl)(2,2-dimethylpiperazin-1-yl)methanone hydrochloride] was tested. Which IC50 did it give?
A: 500 to 10000 nM

Q: With `CC1(C)C(=O)NCCN1C(=O)c1ccc2c(n1)C1(CCOCC1)C(=O)N2c1ccc(Cl)c(F)c1` [Example 1, 1′-(4-chloro-3-fluorophenyl)-5′-(2,2-dimethyl-3-oxopiperazine-1-carbonyl)-2,3,5,6-tetrahydrospiro[pyran-4,3′-pyrrolo[3,2-b]pyridin]-2′(1′H)-one] as the compound, how does the IC50 read?
A: 500 to 10000 nM

Q: With `CN(C(=O)c1ccc2c(n1)C(C)(C)CN2c1ccc(Cl)c(F)c1)C1(C(N)=O)CC1` [Example 48, N-(1-carbamoylcyclopropyl)-1-(4-chloro-3-fluorophenyl)-N,3,3-trimethyl-2,3-dihydro-1H-pyrrolo[3,2-b]pyridine-5-carboxamide] as the compound, how does the IC50 read?
A: 500 to 10000 nM

Q: How did the IC50 turn out when `Cc1cc(N2CCN(C(=O)c3cnc4c(n3)C(C)(C)CN4c3ccc(F)c(F)c3)C(C)(C)C2)nc(C)c1C(=O)O` [Example 181, 6-(4-(5-(3,4-difluorophenyl)-7,7-dimethyl-6,7-dihydro-5H-pyrrolo[2,3-b]pyrazine-2-carbonyl)-3,3-dimethylpiperazin-1-yl)-2,4-dimethylnicotinic acid] was run?
A: < 500 nM

Q: How did the IC50 turn out when `Cc1cc(N2CCN(C(=O)c3cnc4c(n3)C(C)(C)CN4c3ccc(C(F)(F)F)c(Cl)c3)C(C)(C)C2)nc(C)c1C(=O)O` [Example 193, 6-(4-(5-(3-chloro-4-(trifluoromethyl)phenyl)-7,7-dimethyl-6,7-dihydro-5H-pyrrolo[2,3-b]pyrazine-2-carbonyl)-3,3-dimethylpiperazin-1-yl)-2,4-dimethylnicotinic acid] was run?
A: < 500 nM

Q: With `Cc1cc(C)nc(N2CCN(C(=O)c3ccc4c(n3)C(C)(C)CN4C3CCC(C#N)CC3)C(C)(C)C2)c1` (stereo not drawn) [Example 165, 4-(5-(4-(4,6-dimethylpyridin-2-yl)-2,2-dimethylpiperazine-1-carbonyl)-3,3-dimethyl-2,3-dihydro-1H-pyrrolo[3,2-b]pyridin-1-yl)cyclohexane-1-carbonitrile] as the compound, how does the IC50 read?
A: 500 to 10000 nM

Q: How did the IC50 turn out when `CC1(C)C(=O)NCCN1C(=O)c1ccc2c(n1)[C@]1(C)CCO[C@@H]1N2c1ccc(Cl)c(F)c1` (single isomer, unassigned) [Example 63] was run?
A: 500 to 10000 nM

Q: Which IC50 does the source give for `Cc1cc(N2CCN(C(=O)c3cnc4c(n3)C(C)(C)CN4c3cc(F)c(F)c(F)c3)C(C)(C)C2)nc(C)c1C(=O)O` [Example 277, 6-(4-(7,7-dimethyl-5-(3,4,5-trifluorophenyl)-6,7-dihydro-5H-pyrrolo[2,3-b]pyrazine-2-carbonyl)-3,3-dimethylpiperazin-1-yl)-2,4-dimethylnicotinic acid] here?
A: < 500 nM

Q: Which IC50 does the source give for `CC1(C)CN(c2ccc(Cl)c(F)c2)c2ccc(C(=O)N3CCN(c4cc(CC(=O)O)ccn4)CC3(C)C)nc21` [Example 115, 2-(2-(4-(1-(4-chloro-3-fluorophenyl)-3,3-dimethyl-2,3-dihydro-1H-pyrrolo[3,2-b]pyridine-5-carbonyl)-3,3-dimethylpiperazin-1-yl)pyridin-4-yl)acetic acid] here?
A: < 500 nM

Q: `CC1(C)CN(C2CCC(F)(F)CC2)c2ccc(C(=O)N3CCN(c4ccc(CC(=O)O)cn4)CC3(C)C)nc21` [Example 164, 2-(6-(4-(1-(4,4-difluorocyclohexyl)-3,3-dimethyl-2,3-dihydro-1H-pyrrolo[3,2-b]pyridine-5-carbonyl)-3,3-dimethylpiperazin-1-yl)pyridin-3-yl)acetic acid] was tested. Which IC50 did it give?
A: < 500 nM

Q: How did the IC50 turn out when `CN(C)C(=O)c1csc(N2CCN(C(=O)c3ccc4c(n3)C(C)(C)CN4c3ccc(Cl)c(F)c3)C(C)(C)C2)n1` [Example 80, 2-(4-(1-(4-chloro-3-fluorophenyl)-3,3-dimethyl-2,3-dihydro-1H-pyrrolo[3,2-b]pyridine-5-carbonyl)-3,3-dimethylpiperazin-1-yl)-N,N-dimethylthiazole-4-carboxamide] was run?
A: < 500 nM

Q: How did the IC50 turn out when `CC1(C)CN(c2ccc(Cl)c(F)c2)c2ncc(C(=O)N3CCN(c4ccc(CC(=O)O)cn4)CC3(C)C)nc2O1` [Example 268, 2-(6-(4-(4-(4-chloro-3-fluorophenyl)-2,2-dimethyl-3,4-dihydro-2H-pyrazino[2,3-b][1,4]oxazine-7-carbonyl)-3,3-dimethylpiperazin-1-yl)266yridine-3-yl)acetic acid] was run?
A: > 10000 nM

Q: How did the IC50 turn out when `CC1(C)CC2(CN(c3ccc(Cl)c(F)c3)c3ncc(S(=O)(=O)N4CCC(N5CCNC5=O)CC4)nc32)C1` [Example 266, 1-(1-((5′-(4-chloro-3-fluorophenyl)-3,3-dimethyl-5′,6′-dihydrospiro[cyclobutane-1,7′-pyrrolo[2,3-b]pyrazin]-2′-yl)sulfonyl)piperidin-4-yl)imidazolidin-2-one] was run?
A: > 10000 nM

Q: How did the IC50 turn out when `CC1(C)CN(c2ccc(Cl)c(Cl)c2)c2ncc(C(=O)N3CCN(c4ccc(CC(=O)O)cn4)CC3(C)C)nc21` [Example 221, 2-(6-(4-(5-(3,4-dichlorophenyl)-7,7-dimethyl-6,7-dihydro-5H-pyrrolo[2,3-b]pyrazine-2-carbonyl)-3,3-dimethylpiperazin-1-yl)pyridin-3-yl)acetic acid] was run?
A: < 500 nM

Q: With `COC1CC2(C1)CN(c1ccc(Cl)c(F)c1)c1ccc(C(=O)N3CCN(c4cc(C)c(C(=O)O)c(C)n4)CC3(C)C)nc12` (single isomer, unassigned) [Example 199, 6-(4-(1′-(4-chloro-3-fluorophenyl)-3-methoxy-1′,2′-dihydrospiro[cyclobutane-1,3′-pyrrolo[3,2-b]pyridine]-5′-carbonyl)-3,3-dimethylpiperazin-1-yl)-2,4-dimethylnicotinic acid] as the compound, how does the IC50 read?
A: < 500 nM

Q: Which IC50 does the source give for `Cc1cc(N2CCN(C(=O)c3ccc(N4CC(C)(C)c5nc(C(=O)N6CCN(c7cc(C)c(C(=O)O)c(C)n7)CC6(C)C)ccc54)nc3)C(C)(C)C2)nc(C)c1C(=O)O` [Example 133, 6-(4-(6-(5-(4-(5-carboxy-4,6-dimethylpyridin-2-yl)-2,2-dimethylpiperazine-1-carbonyl)-3,3-dimethyl-2,3-dihydro-1H-pyrrolo[3,2-b]pyridin-1-yl)nicotinoyl)-3,3-dimethylpiperazin-1-yl)-2,4-dimethylnicotinic acid] here?
A: > 10000 nM
